Experimental data reported in patent US5504071A, “Compounds with a sequence of three radicals, the central one being α- a” (Polifarma S.p.A., priority 1990, dated 1996).
Square brackets hold non-standard residues; d marks the D form. Peptide text beside a SMILES is read from it. * marks the point of attachment. Trp(1-Me) = Cn1cc(C[C@H](N)C(=O)O)c2ccccc21; Tic = O=C(O)[C@@H]1Cc2ccccc2CN1; pGlu = O=C1CC[CH](C(=O)O)N1; Hyp = O=C(O)[CH]1C[CH](O)CN1; Phg = N[CH](C(=O)O)c1ccccc1; ΔPro = O=C(O)[C@@H]1C=CCN1; Pip = O=C(O)[C@@H]1CCCCN1; αMeP = C[C]1(C(=O)O)CCCN1; Cbz = O=C(OCc1ccccc1)*; Aze = O=C(O)[CH]1CCN1; Boc = CC(C)(C)OC(=O)*

Assays:
[1] = tested on: spontaneously hyper-tensive rats (SHR); assay: pressure tests in awake spontaneously hypertensive rats; type: in vivo
From the text: (§1) In the following examples will first of all be given the data necessary for synthesis of the compounds according to the present invention. There will then be given data regarding their pharmacological activity, using methods widely known to be valid. In particular, for the pressure tests, spontaneously hyper-tensive rats were used (SHR from the company Charles River), operated in such a way as to enable pressure to be read even when the animals were awake and free to move. In order to evaluate the analgesic activity, the Hot Plate and Writhing Tests were used. For the anti-inflammatory effect the test of carraginine edema was used. Finally, for immuno-modulating activity the evaluation of the stimulation of growth of human lymphocytes in culture was resorted to, after the addition of specific antigens. The results obtained for each synthesized compound are given at the end of each example.

[2] = Hot Plate test (analgesic activity); type: in vivo
From the text: as §1

[3] = tested on: human lymphocytes in culture; assay: stimulation of growth of human lymphocytes in culture after addition of specific antigens; type: cell-based; conditions: for immune response (immuno-stimulating activity): antigen not stated
From the text: as §1

[4] = Writhing test (analgesic activity); type: in vivo; conditions: dose not stated
From the text: as §1

[5] = analgesic activity, test not specified (Hot Plate and Writhing Tests); type: in vivo; conditions: test and dose not stated
From the text: as §1

[6] = tested on: carraginine edema; assay: carraginine edema test (anti-inflammatory effect); type: in vivo; conditions: dose not stated
From the text: as §1

Structure (SMILES): CCOC(=O)[C@@H]1Cc2c([nH]c3ccccc23)CN1C(=O)[C@H](C)NC(=O)[C@@H]1CCCN1C(=O)OCc1ccccc1 [compound 1, Z-(L)-Pro-(L)-Ala-(S)-CytOEt]
- anti-hypertensive effect ([1]; 4 mg/Kg i.p.): good anti-hypertensive effect
- duration of the anti-hypertensive effect ([1]; 4 mg/Kg i.p.): maintained for a number of hours
- pain killing effect under the Hot Plate test ([2]; 4 mg/Kg i.p.): slight pain killing effect
- response of lymphocytes stimulated by phytohemoagglutinine (PHA) ([3]; PHA stimulation): increases the response of lymphocytes

Structure (SMILES): C[C@H](NC(=O)[C@@H]1CCCN1C(=O)OCc1ccccc1)C(=O)NCCc1c[nH]c2ccccc12 [compound 2, Z-(L)-Pro-(L)-Ala-TrpH]
- anti-hypertensive effect ([1]; dose not stated): comparable to that of compound 1
- immune response (immuno-stimulating activity) [3]: increased, but to a lesser extent than in the previous compound

Structure (SMILES): C[C@H](NC(=O)[C@@H]1CCCN1C(=O)OCc1ccccc1)C(=O)N1CCc2c([nH]c3ccccc23)C1 [compound 3, Z-(L)-Pro-(L)-Ala-CytH]
- anti-hypertensive effect ([1]; 8 mg/Kg i.p.): bland anti-hypertensive effect

Structure (SMILES): COC(=O)[C@H](Cc1ccc(OC)cc1)NC(=O)[C@H](C)NC(=O)[C@@H]1CCCN1C(=O)OCc1ccccc1 [compound 4, Z-(L)-Pro-(L)-Ala-(L)-OmtOMe] (Cbz-Pro-Ala-Tyr(Me)-OMe)
- anti-hypertensive effect ([1]; 8 mg/Kg i.v.): bland anti-hypertensive effect
- immune response (immuno-stimulating activity) [3]: slightly increased

Structure (SMILES): COC(=O)[C@@H](NC(=O)[C@H](C)NC(=O)[C@@H]1CCCN1C(=O)OCc1ccccc1)c1ccccc1 [compound 5, Z-(L)-Pro-(L)-Ala-(L)-PhgOMe] (Cbz-Pro-Ala-[Phg]-OMe)
- anti-hypertensive effect ([1]; 8 mg/Kg i.p.): bland anti-hypertensive effect
- analgesic effect using the Hot Plate test ([2]; dose not stated): moderate analgesic effect

Structure (SMILES): COC[C@H](Cc1ccccc1)NC(=O)[C@H](C)NC(=O)[C@@H]1CCCN1C(=O)OCc1ccccc1 [compound 6, Z-(L)-Pro-(L)-Ala-(L)-Pme]
- anti-hypertensive effect ([1]; 2 mg/Kg i.v.): good anti-hypertensive activity
- reduction of pressure ([1]; 2 mg/Kg i.v., after one hour): approximately 25%
- extension of time in the Hot Plate test ([2]; dose not stated): 25%
- reduction of contorsions during the Writhing test [4]: 70%
- analgesic activity [5]: good analgesic activity
- anti-inflammatory effect [6]: rather weak
- immune response (immuno-stimulating activity) [3]: more consistent

Structure (SMILES): COC(=O)[C@H](Cc1cn(C)c2ccccc12)NC(=O)[C@H](C)NC(=O)[C@@H]1CCCN1C(=O)OCc1ccccc1 [compound 7, Z-(L)-Pro-(L)-Ala-(1)-Me-(L)-TrpOMe] (Cbz-Pro-Ala-[Trp(1-Me)]-OMe)
- anti-hypertensive effect ([1]; 2 mg/Kg i.v.): good anti-hypertensive effect
- reduction of pressure ([1]; 2 mg/Kg i.v.): 10%

Structure (SMILES): COC(=O)[C@H](Cc1c[nH]c2ccccc12)NC(=O)[C@H](CC(C)C)NC(=O)c1ccco1 [compound 8, 2-Fur-(L)-Leu-(L)-TrpOMe]
- anti-hypertensive effect ([1]; 4 mg/Kg i.v.): slight anti-hypertensive effect
- anti-inflammatory effect [6]: slight anti-inflammatory effect
- immune response (immuno-stimulating activity) [3]: strongly stimulated even with small doses of peptide

Structure (SMILES): COC(=O)[C@H](Cc1c[nH]c2ccccc12)NC(=O)[C@H](CC(C)C)NC(=O)c1ccc[nH]1 [compound 9, 2-Pyrrolyl-(L)-Leu-(L)-TrpOMe]
- anti-hypertensive effect ([1]; dose not stated): slight effect on pressure
- anti-inflammatory effect [6]: bland reduction of inflammatory responses

Structure (SMILES): COC(=O)C(Cc1c[nH]c2ccccc12)NC(=O)C(CC(C)C)NC(=O)C1CCCN1C.Cl (centres unmarked) [compound 10, N-Me-(L)-Pro(L)-Leu-(L)-TrpOMe.HCl]
- anti-hypertensive effect ([1]; 2 mg/Kg i.v.): excellent anti-hypertensive effect
- analgesic activity [5]: low analgesic effect
- immune response (immuno-stimulating activity) [3]: slightly increased

Structure (SMILES): COC(=O)[C@@H]1Cc2ccccc2CN1C(=O)[C@H](C)NC(=O)[C@@H]1CCCN1C(=O)OCc1ccccc1 [compound 11, Z-(L)-Pro-(L)-Ala-CypOMe] (Cbz-Pro-Ala-[Tic]-OMe)
- anti-hypertensive effect ([1]; dose not stated): slight anti-hypertensive effect
- anti-inflammatory effect [6]: moderate anti-inflammatory effect

Structure (SMILES): COC(=O)C(Cc1c[nH]c2ccccc12)NC(=O)C(CC(C)C)NC(=O)C1(C)CCCN1C(=O)OC(C)(C)C (stereo not drawn) [compound 12, Boc-(L)-Mep-(L)-Leu-(L)TrpOMe] (Boc-[αMeP]-Leu-Trp-OMe; configuration not given here)
- anti-hypertensive effect ([1]; dose not stated): bland anti-hypertensive effect
- anti-inflammatory effect [6]: reduction of the inflammatory response

Structure (SMILES): COC(=O)[C@H](Cc1c[nH]c2ccccc12)NC(=O)[C@H](CC(C)C)NC(=O)[C@@H]1C=CCN1C(=O)OC(C)(C)C [compound 13, Boc-.gradient.^3.4 -(L)-Pro-(L)-Leu-(L)-TrpOMe] (Boc-[ΔPro]-Leu-Trp-OMe)
- anti-hypertensive effect ([1]; dose not stated): slightly anti-hypertensive
- immune response (immuno-stimulating activity) [3]: slightly increases the immune response

Structure (SMILES): COC(=O)[C@H](Cc1c[nH]c2ccccc12)NC(=O)[C@H](CC(C)C)NC(=O)[C@@H]1Cc2ccccc2N1C(=O)OCc1ccccc1 [compound 14, Z-(S)-Dhi-(L)-Leu-(L)-TrpOMe]
- anti-hypertensive effect ([1]; dose not stated): bland reduction of pressure
- analgesic activity [5]: moderate analgesic effect

Structure (SMILES): COC(=O)[C@H](Cc1c[nH]c2ccccc12)NC(=O)[C@H](CC(C)C)NC(=O)[C@@H]1CCCCN1C(=O)OCc1ccccc1 [compound 15, Z-(L)-Pip-(L)-Leu-(L)-TrpOMe] (Cbz-[Pip]-Leu-Trp-OMe)
- anti-hypertensive effect ([1]; 2 mg/Kg i.v.): good anti-hypertensive effect
- reduction of pressure ([1]; 2 mg/Kg i.v.): up to 30%
- anti-inflammatory effect [6]: consistent
- immune response (immuno-stimulating activity) [3]: slight increase in immune response

Structure (SMILES): COC(=O)C(Cc1c[nH]c2ccccc12)NC(=O)C(CC(C)C)NC(=O)C1CC(O)CN1C(=O)OCc1ccccc1 (stereo not drawn) [compound 16, Z-(L)-Hyp-(L)-Leu-(L)-TrpOMe] (Cbz-[Hyp]-Leu-Trp-OMe; configuration not given here)
- anti-hypertensive effect ([1]; dose not stated): bland anti-hypertensive action
- analgesic activity [5]: modest analgesic effect

Structure (SMILES): COC(=O)C(Cc1c[nH]c2ccccc12)NC(=O)C(CC(C)C)NC(=O)C1CCN1C(=O)OCc1ccccc1 [compound 17, Z-(S)-Aze-(L)-Leu-(L)-TrpOMe] (Cbz-[Aze]-Leu-Trp-OMe; configuration not given here)
- anti-hypertensive effect ([1]; dose not stated): slight anti-hypertensive effect
- anti-inflammatory effect [6]: bland anti-inflammatory activity

Structure (SMILES): COC(=O)[C@H](Cc1c[nH]c2ccccc12)NC(=O)[C@H](CC(C)C)NC(=O)[C@@H]1CCCO1 [compound 18, (S)-Tfc-(L)-Leu-(L)-TrpOMe]
- anti-hypertensive effect ([1]; dose not stated): bland anti-hypertensive effect
- immune response (immuno-stimulating activity) [3]: stimulates the immune response in a moderate manner

Structure (SMILES): COC(=O)[C@H](Cc1c[nH]c2ccccc12)NC(=O)[C@H](CC(C)C)NC(=O)[C@@H]1CCC(=O)N1C(=O)OCc1ccccc1 [compound 19, Z-(L)-Pyr-(L)-Leu-(L)-TrpOMe]
- anti-hypertensive effect ([1]; dose not stated): slight anti-hypertensive effect
- anti-inflammatory effect [6]: fair anti-inflammatory activity

Structure (SMILES): COC(=O)[C@@H]1Cc2c([nH]c3ccccc23)CN1C(=O)[C@H](CC(C)C)NC(=O)[C@@H]1CCC(=O)N1C(=O)OCc1ccccc1 [compound 20, Z-(L)-Pyr-(L)-Leu-(S)-CytOMe]
- anti-hypertensive effect ([1]; dose not stated): bland anti-hypertensive activity
- anti-inflammatory effect [6]: fair anti-inflammatory activity

Structure (SMILES): COC(=O)[C@@H]1Cc2ccccc2CN1C(=O)[C@H](CC(C)C)NC(=O)[C@@H]1CCC(=O)N1C(=O)OCc1ccccc1 [compound 21, Z-CL)-Pyr-(L)-Leu-(S)-CypOMe]
- anti-hypertensive effect ([1]; dose not stated): slight anti-hypertensive activity
- immune response (immuno-stimulating activity) [3]: good immuno-stimulating activity

Structure (SMILES): COC(=O)C(NC(=O)CNC(=O)C1CCC(=O)N1)c1ccccc1 (stereo not drawn) [compound 22, (L)-Pyr-Gly-(L)-PhgOMe] ([pGlu]-Gly-[Phg]-OMe; configuration not given here)
- anti-hypertensive effect ([1]; 4 mg/Kg i.p.): excellent anti-hypertensive activity
- reduction of pressure values ([1]; 4 mg/Kg i.p.): 20%
- anti-inflammatory effect [6]: very good
- reduction of edema [6]: 70%
- immune response (immuno-stimulating activity) [3]: appears to increase the immune response

Structure (SMILES): COC[C@H](Cc1ccccc1)NC(=O)CNC(=O)[C@@H]1CCC(=O)N1 [compound 23, (L)-Pyr-Gly-(L)-Pme]
- anti-hypertensive effect ([1]; 8 mg/Kg i.p.): good anti-hypertensive activity
- reduction of contorsions during the Writhing test [4]: 80%
- analgesic activity [5]: excellent analgesic effect
- immune response (immuno-stimulating activity) [3]: good immuno-stimulating effect

Structure (SMILES): COC(=O)[C@@H]1Cc2ccccc2CN1C(=O)CNC(=O)[C@@H]1CCC(=O)N1 [compound 24, (L)-Pyr-Gly-(L)-CypOMe] ([pGlu]-Gly-[Tic]-OMe)
- anti-hypertensive effect ([1]; dose not stated): bland anti-hypertensive action
- anti-inflammatory effect [6]: moderate anti-inflammatory action

Structure (SMILES): COC(=O)[C@@H]1Cc2c([nH]c3ccccc23)CN1C(=O)[C@H](CC(C)C)NC(=O)[C@@H]1CCC(=O)N1 [compound 25, (L)-Pyr-(L)-Leu-(S)-CytOMe]
- anti-hypertensive effect ([1]; dose not stated): bland anti-hypertensive effect
- analgesic activity [5]: weak analgesic activity
